# Measured values from patent US20250064813A1, “STABLE LIQUID PHARMACEUTICAL FORMULATION” (GENUV Inc., priority 2022, published 2025).
# Test: In-vial stability, 2 weeks: HPLC content and total impurities
# Format: physicochemical
# Procedure: The glass vials containing the compositions prepared in Example 4-1 were stored for 2 weeks under the two conditions below, and stability study was performed.
# Aliquots of the compositions in the glass vial were taken, and the content of Compound 1 and total impurities were measured with HPLC. Measurements were performed in duplicates, and the average value was reported. Impurities were quantified by percentage area relative to the main Compound 1 peak and based on Relative Response Factor (RRF) of 1.0. As a positive control, the dried powder of Compound 1 was used and tested in the same way.
smiles,measurement,setting,value
"CC(=O)Nc1cccc(-n2c(=O)n(C3CC3)c(=O)c3c(Nc4ccc(I)cc4F)n(C)c(=O)c(C)c32)c1 [Compound 1, N-(3-{3-Cyclopropyl-5-[(2-fluoro-4-iodophenyl)amino]-6,8-dimethyl-2,4,7-trioxo-3,4,6,7-tetrahydropyrido[4,3-d]pyrimidin-1 (2H)-yl}phenyl) acetamide]",Compound 1 Content (%),t = 0,100.5%
same,Total Impurities (%),t = 0,0.15%
same,Compound 1 Content (%),t = 2w (40° C./75% RH),100.3%
same,Total Impurities (%),t = 2w (40° C./75% RH),0.14%
